From article PMC7412250, “Novel Chrysin-De-Allyl PAC-1 Hybrid Analogues as Anticancer Compounds: Design, Synthesis, and Biological Evaluation” (Molecules, 2020)

Legend:
MDA-MB-231 cells = assay: MitoTracker Red / Alexa Fluor 488 annexin V flow cytometry (mitochondrial membrane potential and apoptosis); format: cell-based, human; settings: for Q2 % of cells (population of cells undergoing apoptosis, quadrant II): 24 h, MitoTracker Red / annexin V, 0 µM control 14.30% (4g), 14.78% (4i); for mitochondrial membrane potential (in words): incubation for 24 h
Protocol: MitoTracker Red and Alexa Fluor 488 annexin V kits for flow cytometry (Molecular Probes Inc., Invitrogen, Eugene, OR) were used to measure the mitochondrial membrane potential and apoptosis in MDA-MB-231 cells. […] The cells were then […] using 0.05% trypsin, 2.21 mM EDTA, 1×, counted, and 4 μL of 10 μM of the MitoTracker Red working solution were added to 1 mL of the harvested cells. The cells were incubated at 37 °C with 5% CO2 for 30 min. The cells were washed once with PBS and resuspended in 100 μL of the annexin binding buffer. The cell suspensions were incubated with 5 μL of Alexa Fluor 488 annexin V for 15 min. This was followed by the addition of 400 μL of the annexin-binding buffer. Finally, flow cytometry was used to detect the fluorescence of stained cells at the following excitation/emission maxima: Alexa Fluor® 488 annexin V: 499/521 nm; MitoTracker® Red: 579/599 nm with the BD Accuri™ C6 flow cytometer from BD Biosciences (Becton-Dickinson, San Jose, CA, USA) and analyzed using FCS express 5 plus De Novo software (Glendale, CA, USA).

HCT116 = assay: MTT cytotoxicity assay, HCT116; format: cell-based; settings: Homo sapiens, HCT-116, mean ± SEM of three independent experiments in triplicate, read-out: IC50 Colon Cancer HCT116
Protocol: (§1) A panel of cancer cell lines, including breast (MDA-MB-231, BT20), brain (U251), and colon (HCT116), as well as a normal cell line (human mammary epithelial cells: HMECs), were grown as adherent monolayers in flasks with Dulbecco’s Modified Eagle Medium (DMEM), supplemented with 10% fetal bovine serum (FBS) and 1% penicillin and streptomycin in a humidified incubator with 5% CO2 at 37 °C.
(§2) The (3-(4,5-dimethylthiazol-2-yl)-2,5-diphenyltetrazolium bromide) (MTT) assay was used to determine the cytotoxicity of the 15 chrysin derivatives in the above-mentioned cell lines. Briefly, cells were harvested with 0.05% trypsin, 2.21 mM ethylenediaminetetraacetic acid (EDTA), 1× from Corning (Corning, NY, USA), and suspended at a final density of 5 × 10^3 cells/well. Cells were seeded (180 μL/well) into 96-well plates. Initially, four different concentrations of each compound were added to find the compounds with the greatest antiproliferative efficacy in the MDA-MB-231 cell line (0, 1, 10, and 100 μM). Subsequently, […] different concentrations […] of each compound were added to the remaining cell lines mentioned above. After 68 h of incubation, 20 μL of the MTT solution (4 mg/mL) were added to each well, and the plates were incubated for 4 h. This allowed viable cells to biotransform the yellow-colored MTT into dark-blue formazan crystals. Subsequently, the medium was discarded, and 150 μL of DMSO were added to each well to dissolve the formazan crystals. The absorbance was determined at 590 nm using a DTX 880 multimode detector (Beckman Coulter life sciences, IN, USA). The IC50 ± SD concentrations were calculated from three experiments performed in triplicate/duplicate. The IC50 values were calculated from the cell survival percentages obtained for each compound tested at different concentrations. Similarly, the cytotoxicity of the test compounds was compared to the normal cell line (HMEC).

U-251 = assay: MTT cytotoxicity assay, U-251; format: cell-based; settings: Homo sapiens, mean ± SEM of three independent experiments in triplicate, read-out: IC50 Brain Cancer U-251
Protocol: as §1, §2

BT-20 = assay: MTT cytotoxicity assay, BT-20; format: cell-based; settings: Homo sapiens, mean ± SEM of three independent experiments in triplicate, read-out: IC50 Breast Cancer BT-20
Protocol: as §1, §2

SMILES	Q2 % of cells (population of cells undergoing apoptosis, quadrant II) (MDA-MB-231 cells; 5 µM)	Q2 % of cells (population of cells undergoing apoptosis, quadrant II) (MDA-MB-231 cells; 10 µM)	mitochondrial membrane potential (in words) (MDA-MB-231 cells)	IC50 (HCT116)	IC50 (U-251)	IC50 (BT-20)
O=C(COc1cc(O)c2c(=O)cc(-c3ccccc3)oc2c1)N/N=C/c1ccc(O)c(O)c1O [Compound 4i, (E,Z)-2-((5-Hydroxy-4-oxo-2-phenyl-4H-chromen-7-yl)oxy)-N’-(2,3,4-trihydroxybenzylidene)acetohydrazide]	32.25%	42.56%	significant loss of the mitochondrial membrane potential	20.09 ± 0.13 µM	25.4 ± 7.53 µM	10.4 ± 0.2 µM
O=C(COc1cc(O)c2c(=O)cc(-c3ccccc3)oc2c1)N/N=C/c1ccc(O)cc1O [Compound 4g, (E,Z)-N’-(2,4-Dihydroxybenzylidene)-2-((5-hydroxy-4-oxo-2-phenyl-4H-chromen-7-yl)oxy)acetohydrazide]	26.56%	58.05%	significant loss of the mitochondrial membrane potential	2.68 ± 0.15 µM	7.64 ± 0.11 µM	5.32 ± 0.72 µM
